Experimental findings from patent publication US8501936B2 (priority 2009, dated 2013) are described below.

A word on the IC50: it is the concentration needed to halve the response being measured.

In one test the target is human JAK2 (Homo sapiens (Human), UniProt O60674). The note with it: read-out: JAK2 IC50.
For a further test, the target named is human FAK (Homo sapiens (Human), UniProt Q05397). The note with it: read-out: FAK IC50.
human FAK, sequence (Q05397 whole entry): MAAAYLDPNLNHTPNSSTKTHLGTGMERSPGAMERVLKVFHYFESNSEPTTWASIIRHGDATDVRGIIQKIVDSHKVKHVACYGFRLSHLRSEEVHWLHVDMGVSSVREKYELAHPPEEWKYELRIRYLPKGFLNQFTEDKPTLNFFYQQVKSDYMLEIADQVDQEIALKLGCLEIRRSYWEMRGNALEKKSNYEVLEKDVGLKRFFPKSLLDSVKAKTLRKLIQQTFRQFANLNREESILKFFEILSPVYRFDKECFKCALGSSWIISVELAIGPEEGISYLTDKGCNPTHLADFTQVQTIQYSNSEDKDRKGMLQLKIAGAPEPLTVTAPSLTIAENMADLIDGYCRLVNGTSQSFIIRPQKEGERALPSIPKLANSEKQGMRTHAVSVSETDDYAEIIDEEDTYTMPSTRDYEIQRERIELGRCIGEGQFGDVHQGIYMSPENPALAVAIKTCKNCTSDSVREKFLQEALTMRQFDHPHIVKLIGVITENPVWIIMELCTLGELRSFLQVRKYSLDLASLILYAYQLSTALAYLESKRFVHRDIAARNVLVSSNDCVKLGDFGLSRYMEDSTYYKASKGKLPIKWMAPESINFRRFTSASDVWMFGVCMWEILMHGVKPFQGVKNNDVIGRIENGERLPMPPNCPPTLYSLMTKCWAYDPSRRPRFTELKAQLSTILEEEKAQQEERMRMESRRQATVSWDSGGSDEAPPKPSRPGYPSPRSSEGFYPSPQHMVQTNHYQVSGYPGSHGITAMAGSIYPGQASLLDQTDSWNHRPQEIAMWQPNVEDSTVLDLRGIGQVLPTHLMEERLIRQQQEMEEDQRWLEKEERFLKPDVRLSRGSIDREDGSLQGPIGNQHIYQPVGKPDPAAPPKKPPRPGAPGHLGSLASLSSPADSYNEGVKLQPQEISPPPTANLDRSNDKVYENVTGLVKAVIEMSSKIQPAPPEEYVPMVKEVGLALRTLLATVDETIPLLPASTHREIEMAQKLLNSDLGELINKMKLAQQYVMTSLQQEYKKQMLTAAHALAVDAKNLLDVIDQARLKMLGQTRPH

human JAK2, sequence (O60674 815-1132): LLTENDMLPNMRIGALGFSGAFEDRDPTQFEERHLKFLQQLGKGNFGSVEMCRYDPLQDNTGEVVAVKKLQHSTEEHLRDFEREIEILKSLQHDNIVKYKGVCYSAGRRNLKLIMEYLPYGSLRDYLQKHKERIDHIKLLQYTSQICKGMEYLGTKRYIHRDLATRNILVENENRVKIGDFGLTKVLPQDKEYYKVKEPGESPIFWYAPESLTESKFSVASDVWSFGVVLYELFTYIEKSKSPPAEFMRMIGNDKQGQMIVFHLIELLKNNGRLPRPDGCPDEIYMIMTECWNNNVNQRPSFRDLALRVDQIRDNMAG
Procedure for human FAK: The ability of compounds to inhibit the kinase activity of baculovirus-expressed human FAK and PYK2 was measured using the 96-well plate TRF assay system described above for JAK2. […] For the FAK kinase assay, the reaction mixture (total volume=100 μL/well) contained 20 mM HEPES (pH 7.2), 10 μM ATP, 5 mM MgCl2, 0.5 mM DTT, 0.1% BSA, and test compound (diluted in DMSO; 2.5% DMSO final in assay). For PYK2, the 100 μL assay solution consisted of 20 mM HEPES (pH 7.2), 3 μM ATP, 5 mM MnCl2, 0.1% BSA, and test compound (diluted in DMSO; 2.5% DMSO final in assay). Enzyme (10 ng/mL FAK or 25 ng/mL PYK2) was added and the reaction was allowed to proceed at room temperature for 30 min. Detection of the phosphorylated product was performed by adding 100 μL/well of Eu—N1 labeled PY100 antibody diluted 1:75000 in 0.25% BSA in TBS-T (PerkinElmer #AD0041). […] Inhibition data were analyzed using ActivityBase and IC50 curves generated using XLFit.

Regarding `CN1CCN(c2cccc(Nc3nc4c(-c5cccc(S(C)(=O)=O)c5)cccn4n3)c2)CC1` [Example 60, [8-(3-Methanesulfonyl-phenyl)-[1,2,4]triazolo[1,5-a]pyridin-2-yl]-[3-(4-methyl-piperazin-1-yl)-phenyl]-amine], the results for the IC50 on human JAK2 and on human FAK were 6.4 nM and 1260 nM, respectively.

Turning to `CN1CCC(c2cccc(Nc3nc4c(-c5ccc(S(C)(=O)=O)cc5)cccn4n3)c2)CC1` [Example 61, [8-(4-Methanesulfonyl-phenyl)-[1,2,4]triazolo[1,5-a]pyridin-2-yl]-[3-(1-methyl-piperidin-4-yl)-phenyl]-amine], the IC50 on human JAK2 was determined as 0.7 nM; on human FAK, 265 nM.

In the case of `CN1CCN(c2ccc(Nc3nc4c(-c5ccc(N(C)S(C)(=O)=O)cc5)cccn4n3)cc2)CC1` [Example 62, N-Methyl-N-(4-{2-[4-(4-methyl-piperazin-1-yl)-phenylamino]-[1,2,4]triazolo[1,5-a]pyridin-8-yl}-phenyl)-methanesulfonamide], the IC50 at human JAK2 is 0.6 nM; at human FAK it was 999 nM.

In the case of `CN1CCN(c2cccc(Nc3nc4c(-c5ccc(N(C)S(C)(=O)=O)cc5)cccn4n3)c2)CC1` [Example 63, N-Methyl-N-(4-{2-[3-(4-methyl-piperazin-1-yl)-phenylamino]-[1,2,4]triazolo[1,5-a]pyridin-8-yl}-phenyl)-methanesulfonamide], the IC50 came to 0.6 nM on human JAK2 and 1350 nM at human FAK.

Turning to `CN1CCN(c2ccc(Nc3nc4c(-c5ccc(C(F)(F)F)cc5)cccn4n3)cc2)CC1` [Example 64, [4-(4-Methyl-piperazin-1-yl)-phenyl]-[8-(4-trifluoromethyl-phenyl)-[1,2,4]triazolo[1,5-a]pyridin-2-yl]-amine], the IC50 on human JAK2 turned out to be 3.1 nM; at human FAK, 1250 nM.

`CN1CCN(c2ccc(Nc3nc4c(-c5ccccc5S(C)(=O)=O)cccn4n3)cc2)CC1` [Example 66, [8-(2-Methanesulfonyl-phenyl)-[1,2,4]triazolo[1,5-a]pyridin-2-yl]-[4-(4-methyl-piperazin-1-yl)-phenyl]-amine]: the IC50 on human JAK2 is 1330 nM; on human FAK, 10000 nM.

For `CN1CCN(c2ccc(Nc3nc4cccc(-c5ccc(CN6CCS(=O)(=O)CC6)cc5)n4n3)cc2)CC1` [Example 70, 5-{4-[(1,1-dioxidothiomorpholin-4-yl)methyl]phenyl}-N-[4-(4-methylpiperazin-1-yl)phenyl][1,2,4]triazolo[1,5-a]pyridin-2-amine], the values for the IC50 at human JAK2 and on human FAK were 1.1 nM and 291 nM, respectively.

As to `CN1CCN(c2cccc(Nc3nc4cccc(-c5ccc(CN6CCS(=O)(=O)CC6)cc5)n4n3)c2)CC1` [Example 71, 5-{4-[(1,1-dioxidothiomorpholin-4-yl)methyl]phenyl}-N-[3-(4-methylpiperazin-1-yl)phenyl][1,2,4]triazolo[1,5-a]pyridin-2-amine], the IC50 turned out to be 0.8 nM at human JAK2 and 502 nM on human FAK.

Regarding `CN1CCN(c2ccc(Nc3nc4c(Nc5ccccc5S(C)(=O)=O)cccn4n3)cc2)CC1` [Example 72, N(8)-(2-Methanesulfonyl-phenyl)-N(2)-[4-(4-methyl-piperazin-1-yl)-phenyl]-[1,2,4]triazolo[1,5-a]pyridine-2,8-diamine], the IC50 at human JAK2 is 8.3 nM; on human FAK, 380 nM.

`CS(=O)(=O)c1ccc(-c2cccc3nc(Nc4ccc(OCCN5CCCC5)cc4)nn23)cc1` [Example 73, [5-(4-Methanesulfonyl-phenyl)-[1,2,4]triazolo[1,5-a]pyridin-2-yl]-[4-(2-pyrrolidin-1-yl-ethoxy)-phenyl]-amine]: the IC50 at human JAK2 turned out to be 2.1 nM; on human FAK, 227 nM.

Take `CC(C)(C)OC(=O)N1CCN(c2ccc(Nc3nc4cccc(-c5ccc(S(C)(=O)=O)cc5)n4n3)cc2)CC1` [Example 75, 4-{4-[5-(4-Methanesulfonyl-phenyl)-[1,2,4]triazolo[1,5-a]pyridin-2-ylamino]-phenyl}-piperazine-1-carboxylic acid tert-butyl ester]: the values for the IC50 at human JAK2 and at human FAK were 1.3 nM and 359 nM, respectively.

For the compound `CS(=O)(=O)c1cccc(-c2cccc3nc(Nc4ccc(N5CCOCC5)cc4)nn23)c1` [Example 78, [5-(3-Methanesulfonyl-phenyl)-[1,2,4]triazolo[1,5-a]pyridin-2-yl]-(4-morpholin-4-yl-phenyl)-amine], the IC50 was 3.2 nM on human JAK2 and 1530 nM at human FAK.

As to `CN1CCN(c2ccc(Nc3nc4cccc(-c5ccc(S(C)(=O)=O)cc5)n4n3)cc2)CC1` [Example 81, [5-(4-Methanesulfonyl-phenyl)-[1,2,4]triazolo[1,5-a]pyridin-2-yl]-[4-(4-methyl-piperazin-1-yl)-phenyl]-amine], the IC50 is 6.9 nM at human JAK2 and 421 nM at human FAK.

As for `CN1CCN(c2ccc(Nc3nc4cccc(-c5cccc(S(C)(=O)=O)c5)n4n3)cc2)CC1` [Example 82, [5-(3-Methanesulfonyl-phenyl)-[1,2,4]triazolo[1,5-a]pyridin-2-yl]-[4-(4-methyl-piperazin-1-yl)-phenyl]-amine], the IC50 on human JAK2 was determined as 9.2 nM; on human FAK, 584 nM.

Take `CN1CCN(c2ccc(Nc3nc4cccc(-c5cccc(NS(C)(=O)=O)c5)n4n3)cc2)CC1` [Example 83, N-(3-{2-[4-(4-Methyl-piperazin-1-yl)-phenylamino]-[1,2,4]triazolo[1,5-a]pyridin-5-yl}-phenyl)-methanesulfonamide]: the IC50 turned out to be 19 nM at human JAK2 and 553 nM on human FAK.

For the compound `CN1CCN(c2ccc(Nc3nc4cccc(-c5ccc(NS(C)(=O)=O)cc5)n4n3)cc2)CC1` [Example 84, N-(4-{2-[4-(4-Methyl-piperazin-1-yl)-phenylamino]-[1,2,4]triazolo[1,5-a]pyridin-5-yl}-phenyl)-methanesulfonamide], the IC50 at human JAK2 amounted to 2.8 nM; on human FAK, 2280 nM.

Regarding `CN1CCN(Cc2ccc(Nc3nc4cccc(-c5ccc(S(C)(=O)=O)cc5)n4n3)cc2)CC1` [Example 86, [5-(4-Methanesulfonyl-phenyl)-[1,2,4]triazolo[1,5-a]pyridin-2-yl]-[4-(4-methyl-piperazin-1-ylmethyl)-phenyl]-amine], the IC50 at human JAK2 is 1.7 nM; at human FAK it was 264 nM.

With `CN1CCN(Cc2ccc(Nc3nc4cccc(-c5cccc(S(C)(=O)=O)c5)n4n3)cc2)CC1` [Example 88, [5-(3-Methanesulfonyl-phenyl)-[1,2,4]triazolo[1,5-a]pyridin-2-yl]-[4-(4-methyl-piperazin-1-ylmethyl)-phenyl]-amine], the 50% inhibitory concentration (IC50) is 11.7 nM at human JAK2 and 1030 nM on human FAK.

Regarding `CN1CCN(c2ccc(NC(=O)Nc3nc4cccc(-c5cccc(S(C)(=O)=O)c5)n4n3)cc2)CC1` [Example 89, 1-[5-(3-Methanesulfonyl-phenyl)-[1,2,4]triazolo[1,5-a]pyridin-2-yl]-3-[4-(4-methyl-piperazin-1-yl)-phenyl]-urea], the figures for the IC50 on human JAK2 and at human FAK were 230 nM and 8830 nM, respectively.

With `COc1ccc(Nc2nc3cccc(-c4ccc(S(C)(=O)=O)cc4)n3n2)cc1` [Example 91, [5-(4-Methanesulfonyl-phenyl)-[1,2,4]triazolo[1,5-a]pyridin-2-yl]-(4-methoxy-phenyl)-amine], the IC50 at human JAK2 amounted to 1.9 nM; at human FAK, 2600 nM.
